Among the data in paper PMC7544787, “One-step purification of two novel thermotolerant β-1,4-glucosidases from a newly isolated strain of Fusarium chlamydosporum HML278 and their characterization” (AMB Express, 2020) are Km values, retold here.

The subject of this assay is T1, β-glucosidase purified from F. chlamydosporum HML278 (BG FH1 / BG FH2, not told which).
T1 construct: native secreted enzyme from solid-state fermentation; native PAGE recovery and Sephacryl S-200; 93 kDa and 52 kDa (SDS-PAGE), single subunit
The assay is described as follows: initial rates, Lineweaver-Burk. In kind it is biochemical, Fusarium chlamydosporum. The note with it: pH 4.8, 30 °C; one value given, not told whether BG FH1 or BG FH2. From the text:
initial rates, Lineweaver-Burk on β-glucosidase purified from F. chlamydosporum HML278 (BG FH1 / BG FH2, not told which) | By using pNPG as a substrate, it was shown that the Km and Vmax values

For the compound `O=[N+]([O-])c1ccc(O[C@@H]2O[C@H](CO)[C@@H](O)[C@H](O)[C@H]2O)cc1` [pNPG], the Michaelis constant (Km) was determined as 2.76 mg/mL.
